# Reference: PubChem BioAssay AID1259407 (Chemical Carcinogenesis Research Information System (CCRIS), 2018)
# Activity calls are given as the source filed them. No rule for the calls is given here.
# System: CCRIS mutagenicity, Ames/micronucleus/aberration tests
# Assay: CCRIS mutagenicity studies
# [1] = Test System: AMES SALMONELLA TYPHIMURIUM, Strain/Indicator: TA98, Metabolic Activation: HAMSTER, LIVER, S-9, AROCLOR 1254, Method: STANDARD PLATE
# [2] = Test System: AMES SALMONELLA TYPHIMURIUM, Strain/Indicator: TA98, Metabolic Activation: NONE, Method: STANDARD PLATE
# [3] = Test System: AMES SALMONELLA TYPHIMURIUM, Strain/Indicator: TA98, Metabolic Activation: RAT, LIVER, S-9, AROCLOR 1254, Method: STANDARD PLATE
# [4] = Test System: AMES SALMONELLA TYPHIMURIUM, Strain/Indicator: TA100, Metabolic Activation: HAMSTER, LIVER, S-9, AROCLOR 1254, Method: STANDARD PLATE
# [5] = Test System: AMES SALMONELLA TYPHIMURIUM, Strain/Indicator: TA100, Metabolic Activation: NONE, Method: STANDARD PLATE
# [6] = Test System: AMES SALMONELLA TYPHIMURIUM, Strain/Indicator: TA100, Metabolic Activation: RAT, LIVER, S-9, AROCLOR 1254, Method: STANDARD PLATE
# [7] = Test System: AMES SALMONELLA TYPHIMURIUM, Strain/Indicator: TA1535, Metabolic Activation: HAMSTER, LIVER, S-9, AROCLOR 1254, Method: STANDARD PLATE
# [8] = Test System: AMES SALMONELLA TYPHIMURIUM, Strain/Indicator: TA1535, Metabolic Activation: NONE, Method: STANDARD PLATE
# [9] = Test System: AMES SALMONELLA TYPHIMURIUM, Strain/Indicator: TA1535, Metabolic Activation: RAT, LIVER, S-9, AROCLOR 1254, Method: STANDARD PLATE
# [10] = Test System: AMES SALMONELLA TYPHIMURIUM, Strain/Indicator: TA1537, Metabolic Activation: NONE, Method: STANDARD PLATE
# [11] = Test System: AMES SALMONELLA TYPHIMURIUM, Strain/Indicator: TA1537, Metabolic Activation: RAT, LIVER, S-9, AROCLOR 1254, Method: STANDARD PLATE
# [12] = Test System: AMES SALMONELLA TYPHIMURIUM, Strain/Indicator: TA1538, Metabolic Activation: NONE, Method: STANDARD PLATE
# [13] = Test System: AMES SALMONELLA TYPHIMURIUM, Strain/Indicator: TA1538, Metabolic Activation: RAT, LIVER, S-9, AROCLOR 1254, Method: STANDARD PLATE
# [14] = Test System: Mouse lymphoma, Strain/Indicator: L5178Y (tk+/tk-), Metabolic Activation: None, Method: Suspension/plate
# [15] = Test System: Mouse lymphoma, Strain/Indicator: L5178Y (tk+/tk-), Metabolic Activation: Rat, Liver, S-9, Aroclor 1254, Method: Suspension/plate
structure (smiles),measurement,setting,value
COCCCN,mutagenic call,[1],inactive; negative
same,mutagenic call,[2],inactive; negative
same,mutagenic call,[3],inactive; negative
same,mutagenic call,[4],inactive; negative
same,mutagenic call,[5],inactive; negative
same,mutagenic call,[6],inactive; negative
same,mutagenic call,[7],inactive; negative
same,mutagenic call,[8],inactive; negative
same,mutagenic call,[9],inactive; negative
same,mutagenic call,"Test System: AMES SALMONELLA TYPHIMURIUM, Strain/Indicator: TA1537, Metabolic Activation: HAMSTER, LIVER, S-9, AROCLOR 1254, Method: STANDARD PLATE",inactive; negative
same,mutagenic call,[10],inactive; negative
same,mutagenic call,[11],inactive; negative
same,mutagenic call,"Test System: AMES SALMONELLA TYPHIMURIUM, Strain/Indicator: TA1538, Metabolic Activation: HAMSTER, LIVER, S-9, AROCLOR 1254, Method: STANDARD PLATE",inactive; negative
same,mutagenic call,[12],inactive; negative
same,mutagenic call,[13],inactive; negative
same,mutagenic call,[14],inactive; negative
same,mutagenic call,[15],inactive; negative
BrCc1cc2c3c(cccc3c1)-c1ccccc1-2,mutagenic call,[2],active; positive
same,mutagenic call,[5],active; positive
CCC(=O)C(C)=O,mutagenic call,"Test System: AMES SALMONELLA TYPHIMURIUM, Strain/Indicator: TA98, Metabolic Activation: NONE, Method: PREINCUBATION",inactive; negative
same,mutagenic call,"Test System: AMES SALMONELLA TYPHIMURIUM, Strain/Indicator: TA98, Metabolic Activation: RAT, LIVER, S-9, AROCLOR 1254, Method: PREINCUBATION",inactive; negative
same,mutagenic call,"Test System: AMES SALMONELLA TYPHIMURIUM, Strain/Indicator: TA100, Metabolic Activation: NONE, Method: PREINCUBATION",inactive; negative
same,mutagenic call,"Test System: AMES SALMONELLA TYPHIMURIUM, Strain/Indicator: TA100, Metabolic Activation: RAT, LIVER, S-9, AROCLOR 1254, Method: PREINCUBATION",inactive; negative
same,mutagenic call,"Test System: AMES SALMONELLA TYPHIMURIUM, Strain/Indicator: TA102, Metabolic Activation: NONE, Method: PREINCUBATION",inactive; negative
same,mutagenic call,"Test System: AMES SALMONELLA TYPHIMURIUM, Strain/Indicator: TA102, Metabolic Activation: RAT, LIVER, S-9, AROCLOR 1254, Method: PREINCUBATION",inactive; negative
CC(C)NO,mutagenic call,"Test System: CHINESE HAMSTER V-79, Strain/Indicator: V-79/6-THIOGUANINE, Metabolic Activation: NONE, Method: SUSPENSION",active; positive
same,mutagenic call,"Test System: UDS RODENT HEPATOCYTES, Strain/Indicator: THY INCORP (NON-S-PHASE), Metabolic Activation: NONE, Method: LIQUID SCINTILLATION COUNTING",inactive; negative
CCCCOS(=O)(=O)OCCCC,mutagenic call,"End Point: In vitro micronucleus, Test System: Chinese Hamster Ovary (CHO-WBL) cells, Metabolic Activation: None",active; positive (p<0.01)
O=c1c(O)c(C2=CC(O)(CCO)C(O)(CCO)C=C2)oc2c1C(O)=CC(O)(CCO)C2 (stereo not given),mutagenic call,[2],inactive; negative
same,mutagenic call,[3],inactive; negative
same,mutagenic call,[5],inactive; negative
same,mutagenic call,[6],inactive; negative
same,mutagenic call,[8],inactive; negative
same,mutagenic call,[9],inactive; negative
same,mutagenic call,[10],inactive; negative
same,mutagenic call,[11],inactive; negative
same,mutagenic call,[12],inactive; negative
same,mutagenic call,[13],inactive; negative
O=C/C=C/C=C\c1ccc([N+](=O)[O-])cc1,mutagenic call,"Test System: AMES SALMONELLA TYPHIMURIUM, Strain/Indicator: 98(NR), Metabolic Activation: HAMSTER, LIVER, S-9, AROCLOR 1254, Method: STANDARD PLATE",active; positive
same,mutagenic call,"Test System: AMES SALMONELLA TYPHIMURIUM, Strain/Indicator: 98(NR), Metabolic Activation: NONE, Method: STANDARD PLATE",active; positive
same,mutagenic call,"Test System: AMES SALMONELLA TYPHIMURIUM, Strain/Indicator: 98(NR), Metabolic Activation: RAT, LIVER, S-9, AROCLOR 1254, Method: STANDARD PLATE",active; positive
same,mutagenic call,"Test System: AMES SALMONELLA TYPHIMURIUM, Strain/Indicator: 100(NR), Metabolic Activation: HAMSTER, LIVER, S-9, AROCLOR 1254, Method: STANDARD PLATE",active; positive
same,mutagenic call,"Test System: AMES SALMONELLA TYPHIMURIUM, Strain/Indicator: 100(NR), Metabolic Activation: NONE, Method: STANDARD PLATE",active; positive
same,mutagenic call,"Test System: AMES SALMONELLA TYPHIMURIUM, Strain/Indicator: 100(NR), Metabolic Activation: RAT, LIVER, S-9, AROCLOR 1254, Method: STANDARD PLATE",active; positive
same,mutagenic call,[1],active; positive
same,mutagenic call,[2],active; positive
same,mutagenic call,[3],active; positive
same,mutagenic call,[4],active; positive
same,mutagenic call,[5],active; positive
same,mutagenic call,[6],active; positive
same,mutagenic call,[7],active; positive
same,mutagenic call,[8],active; positive
same,mutagenic call,[9],active; positive
same,mutagenic call,[10],active; positive
same,mutagenic call,[11],active; positive
same,mutagenic call,[14],active; equivocal (previous evaluation positive)
same,mutagenic call,[15],inactive; negative
C=COC(N)=O,mutagenic call,"End Point: In vivo micronucleus, Test System: Peripheral blood reticulocytes, Species: Mouse, Strain/Sex: F1 (Big Blue x A/J) transgenic/Male and female, Route: Intraperitoneal",active; positive
same,mutagenic call,"Test System: UDS MOUSE SPERMATIDS, Strain/Indicator: THY INCORP, Metabolic Activation: NONE",active; positive
O=Nc1ccc2ccc3cc4ccccc4c4ccc1c2c34,mutagenic call,"Test System: AMES SALMONELLA TYPHIMURIUM, Strain/Indicator: TA98 (1,8-DNP6), Metabolic Activation: NONE, Method: STANDARD PLATE",active; positive
same,mutagenic call,"Test System: AMES SALMONELLA TYPHIMURIUM, Strain/Indicator: TA98 (NR), Metabolic Activation: NONE, Method: STANDARD PLATE",active; positive
same,mutagenic call,[2],active; positive
same,mutagenic call,"Test System: CHINESE HAMSTER OVARY, Strain/Indicator: CHO-K1-BH4 (HGPRT), Metabolic Activation: NONE",active; positive
CCCCNC(=O)OCC#CI,mutagenic call,"End Point: Ames Salmonella typhimurium, Test System: TA98, Metabolic Activation: S-9, Method: Not specified",inactive; negative
same,mutagenic call,"End Point: Ames Salmonella typhimurium, Test System: TA100, Metabolic Activation: S-9, Method: Not specified",inactive; negative
same,mutagenic call,"End Point: Ames Salmonella typhimurium, Test System: TA1535, Metabolic Activation: S-9, Method: Not specified",inactive; negative
same,mutagenic call,"End Point: Ames Salmonella typhimurium, Test System: TA1537, Metabolic Activation: S-9, Method: Not specified",inactive; negative
same,mutagenic call,"End Point: Ames Salmonella typhimurium, Test System: TA1538, Metabolic Activation: S-9, Method: Not specified",inactive; negative
same,mutagenic call,"End Point: In vivo micronucleus, Test System: Bone marrow polychromatic erythrocytes, Species: Mouse, Strain/Sex: CD-1/Males and females, Route: Oral",inactive; negative
same,mutagenic call,"Test System: Ames Salmonella typhimurium, Strain/Indicator: TA98, Metabolic Activation: None, Method: Not specified",inactive; negative
same,mutagenic call,"Test System: Ames Salmonella typhimurium, Strain/Indicator: TA100, Metabolic Activation: None, Method: Not specified",inactive; negative
same,mutagenic call,"Test System: Ames Salmonella typhimurium, Strain/Indicator: TA1535, Metabolic Activation: None, Method: Not specified",inactive; negative
same,mutagenic call,"Test System: Ames Salmonella typhimurium, Strain/Indicator: TA1537, Metabolic Activation: None, Method: Not specified",inactive; negative
same,mutagenic call,"Test System: Ames Salmonella typhimurium, Strain/Indicator: TA1538, Metabolic Activation: None, Method: Not specified",inactive; negative
O=c1[nH]c(=O)c2[nH]cnc2[nH]1,mutagenic call,"Test System: MOUSE LYMPHOMA, Strain/Indicator: L5178Y (TK+/TK-), Metabolic Activation: NONE, Method: SUSPENSION/PLATE",inactive; negative
